Several values for one entry are separate records, joined by “and”; a condition that tells them apart may be missing. Identical values can stand only once. Like-named read-outs stand apart in the source and are kept apart here.
What was measured:
[1] = molecular target: electric eel AChE [EeAChE] (Electrophorus electricus, UniProt O42275); test: biochemical; format: biochemical; conditions: for IC50: Electric eel AChE, Ellman method, read-out: IC50(nM) ± SD AChE (EeAChE); for SI: Selectivity Index = EqBChE IC50/EeAChE IC50
Chain of electric eel AChE [EeAChE] (O42275 24-633): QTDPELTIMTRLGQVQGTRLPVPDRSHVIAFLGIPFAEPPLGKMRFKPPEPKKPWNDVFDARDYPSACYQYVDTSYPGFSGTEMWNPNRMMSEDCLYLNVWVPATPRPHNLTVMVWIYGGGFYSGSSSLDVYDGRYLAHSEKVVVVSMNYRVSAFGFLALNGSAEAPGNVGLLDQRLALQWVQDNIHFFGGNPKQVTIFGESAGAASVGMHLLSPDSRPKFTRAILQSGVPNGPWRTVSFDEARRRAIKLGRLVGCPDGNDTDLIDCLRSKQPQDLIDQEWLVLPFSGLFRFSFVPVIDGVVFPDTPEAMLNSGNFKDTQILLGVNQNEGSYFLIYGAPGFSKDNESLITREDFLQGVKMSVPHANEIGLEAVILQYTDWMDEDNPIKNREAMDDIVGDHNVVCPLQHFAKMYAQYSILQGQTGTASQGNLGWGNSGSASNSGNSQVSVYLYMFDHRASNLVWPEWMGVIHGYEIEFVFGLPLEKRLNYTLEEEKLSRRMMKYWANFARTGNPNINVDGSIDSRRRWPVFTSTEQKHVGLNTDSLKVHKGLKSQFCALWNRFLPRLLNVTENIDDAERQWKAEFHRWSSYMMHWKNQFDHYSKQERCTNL
Experimental: (§1) The anticholinesterase activity was determined using Ellman’s method, adapted as follows. […] Subsequently, 60 μL of 5,5′-dithiobis(2-nitrobenzoic acid) (DTNB, 1.1 mM) and 30 μL of enzyme solution (electric eel AChE [EeAChE], human AChE [hAChE], or equine serum BChE [EqBChE], 0.20 U/mL) containing 1 mg/mL bovine serum albumin (BSA) were added. […] Enzyme activity was calculated as the percentage relative to untreated controls, subtracting the blank reference. IC50 values were derived via non-linear regression analysis of dose–response curves (Figure S4) using GraphPad Prism v7.0.

[2] = molecular target: T1, equine serum BChE [EqBChE] (Equus caballus, UniProt P81908); test: biochemical; conditions: Ellman method, read-out: IC50(nM) ± SD BChE (EqBChE)
T1 construct: equine serum BChE [EqBChE]; from tissue; host or cells: equine serum
T1 sequence (P81908 whole entry): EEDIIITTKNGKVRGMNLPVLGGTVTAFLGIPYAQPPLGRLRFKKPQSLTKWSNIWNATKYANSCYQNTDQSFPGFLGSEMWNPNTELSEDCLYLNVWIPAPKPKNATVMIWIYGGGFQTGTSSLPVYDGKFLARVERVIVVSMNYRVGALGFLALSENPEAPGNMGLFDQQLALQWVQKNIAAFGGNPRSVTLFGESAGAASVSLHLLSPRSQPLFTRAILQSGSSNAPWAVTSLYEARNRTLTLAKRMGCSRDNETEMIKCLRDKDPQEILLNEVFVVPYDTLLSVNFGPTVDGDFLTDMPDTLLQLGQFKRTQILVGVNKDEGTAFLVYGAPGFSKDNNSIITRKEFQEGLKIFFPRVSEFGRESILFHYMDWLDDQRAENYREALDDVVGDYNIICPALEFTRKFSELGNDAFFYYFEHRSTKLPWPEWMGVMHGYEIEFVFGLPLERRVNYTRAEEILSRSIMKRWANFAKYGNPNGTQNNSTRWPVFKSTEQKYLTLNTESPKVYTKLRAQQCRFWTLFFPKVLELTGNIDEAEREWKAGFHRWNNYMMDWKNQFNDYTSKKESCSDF
Experimental: as §1

[3] = molecular target: electric eel acetylcholinesterase (EeAChE) (Electrophorus electricus, UniProt O42275); test: Enzymatic kinetic study, EeAChE; format: biochemical; conditions: AChE
Chain of electric eel acetylcholinesterase (EeAChE) (O42275 24-633): as the sequence (O42275 24-633) above
Experimental: (§2) The enzymatic kinetics of cholinesterase inhibition were determined according to an adapted Ellman’s method. All of the solutions were prepared at 20 °C in 0.02 M Tris-HCl buffer (pH 7.5; ionic strength ~0.02 M), stock solutions of test compounds were prepared in DMSO:EtOH (7:3) mixture (20 mM), and the experiment was conducted in triplicate. To a flat-bottom 96-well transparent plate (path length of 0.6 cm) were added 150 μL of treatment solutions with inhibitors 1a, 1h, and 1j at two different concentrations (Table S1) distributed in eight sets of triplicate each. Eight sets of untreated triplicates were used as a negative control. Following, there were added 60 μL of 5,5′-Dithiobis(2-nitrobenzoic acid) (DTNB, Ellman’s reagent) at 1.1 mM and 30 μL of electric eel acetylcholinesterase (EeAChE) or equine serum butyrylcholinesterase (EqBuChE) at 0.20 U/mL in the presence of 1 mg/mL bovine serum albumin (BSA). […] Ki, Ki’ (competitive and noncompetitive inhibition constants, respectively), Km (Michaelis-Menten constant), and Vmax values were calculated with Graphpad Prism v7.0 using the non-linear regression models for enzyme kinetics inhibition and enzyme kinetics–substrate vs. velocity.

[4] = molecular target: T2, equine serum butyrylcholinesterase (EqBuChE) (Equus caballus, UniProt P81908); test: Enzymatic kinetic study, EqBChE; format: biochemical; conditions: BChE
T2 construct: equine serum BChE [EqBChE]; from tissue; host or cells: equine serum
T2 sequence (P81908 whole entry): as the sequence (P81908 whole entry) above
Experimental: as §2

[5] = Cytotoxicity (neurotoxicity) MTT assay in SH-SY5Y; format: cell-based; conditions: human, SH-SY5Y neuroblastoma cells
Experimental: (§3) The immortalized human neuroblastoma cell line (SH-SY5Y–ATCC: CRL-2226; BCRJ:0223) was used to evaluate cytotoxicity. The cell line was cultured in Dulbecco’s Modified Eagle’s Medium and F12 in a 1:1 ratio (DMEM:F12; Sigma-Aldrich code 0697, Brazil) supplemented with 10% fetal bovine serum (FBS; Sigma-Aldrich code F2442, Brazil) and 1% streptomycin/penicillin (10,000 U/mL and 10,000 μg/mL, respectively; Nova Biotecnologia code BR30110-01, Cotia, SP, Brazil) and incubated at 37 °C with 5% CO2. The culture medium was replaced every 48 h, until the cells reached semi-confluence (≥70%). Cell passage was carried out with the aid of trypsin-EDTA/0.25% solution (Nova Biotecnologia, Brazil) and divided between 5 or 8 mL culture volumes depending on the respective bottles (25 or 75 cm^2) used.
(§4) The in vitro cytotoxicity assay evaluated cell viability using the [3-(4,5-dimethylthiazol-2yl)-2,5-diphenyl tetrazolium] bromide (MTT) reduction assay. Cells were seeded at an initial density of 5.0 × 10^4 cells/well in 96-well plates in a volume of 200 µL. […] In the next step, the culture medium was replaced by the sample solution previously described (Section 3.4.2). After 24 h exposure, the medium was replaced with 100 μL of MTT in phosphate-buffer saline (PBS), pH 7.4, at a concentration of 0.5 mg.mL^−1/well and the plates were incubated for an additional 3 h. Then, the MTT solution was removed, and 100 μL of DMSO was added to solubilize the formazan crystals. The cell viability was measured by absorbance at 562 nm using a Microplate Absorbance Reader (Kasuaki, Brazil). All concentrations tested were evaluated in nine replicates (n = 9). The variation in results was observed using ANOVA followed by Tukey’s test for multiple comparisons through GraphPad Prism v5^TM with a significance level of p < 0.05.

[6] = tested on: SH-SY5Y neuroblastoma cells; test: Cytotoxicity (neurotoxicity) MTT assay in SH-SY5Y; format: cell-based; conditions: up to 50 µM
Experimental: as §3, §4

[7] = tested on: H2O2-damaged SH-SY5Y cells; test: In vitro neuroprotection against H2O2 in SH-SY5Y (MTT)
Experimental: For the neuroprotection assay, the cells previously cultured (Section 3.4.1) were seeded in 96-well plates at a density of 5 × 10^4 cells/well in a volume of 200 µL. The plates were incubated at 37 °C containing 5% CO2 for 24 h. After 24 h, the medium was replaced with the test solutions. […] Finally, the test solutions were removed, the cells were washed with PBS pH 7.4, and the H2O2 solution was added and maintained in contact with the cells for 24 h. After 24 h exposure, the neuroprotective capacity was assessed through cell viability using the MTT assay protocol previously described in Section 3.4.3 [52, 53].

[8] = enzyme-substrate complex, global non-linear regression (Table 2)
[9] = global non-linear regression, mixed inhibition (Table S3)

| Compound | IC50 [1] [nM] | SI [1] | IC50 [2] [nM] | other results |
| --- | --- | --- | --- | --- |
| O=c1oc2cc(OCCN3CCCCC3)ccc2cc1-c1cn(-c2ccccc2)nn1 [Compound 1a, 3-(1-Phenyl-1H-1,2,3-triazol-4-yl)-7-(2-(piperidin-1-yl)ethoxy)-2H-chromen-2-one] | 50 ± 2.04 | 173 | 8660 ± 150 | inhibition mechanism ([3]; Lineweaver-Burk plots): mixed-type inhibition; Ki′ ± SE (95% CI) ([3]; enzyme-substrate complex (Table S3)): 61.59 ± 20.04 nM; Ki’ (nM) ± SE [3, 8]: 61.59 ± 20.04 nM; Ki ([3]; free enzyme, global non-linear regression to mixed-inhibition equation (Table 2), read-out: Ki (nM) ± SE): 30.8 ± 5.38 nM; α ± SE (95% CI) [3, 9]: 2.001 ± 0.6489; Vmax ± SD ([3]; inhibitor 0.02 μM): 2.78 ± 0.044 1 × 10^3 nM/min and 2.78 ± 0.04 1 × 10^3 nM/min; Vmax ± SD ([3]; inhibitor 0.06 μM): 2.06 ± 0.031 1 × 10^3 nM/min and 2.06 ± 0.03 1 × 10^3 nM/min; inhibition mechanism ([4]; Lineweaver-Burk plots): mixed-type inhibition; Ki ([4]; competitive inhibition constant (Table S2), read-out: Ki (nM) ± SD): 3500 ± 64.9 nM; Ki’ (nM) ± SE [4, 8]: 11,400 ± 1100 nM; Ki ([4]; free enzyme (Table S3), read-out: Ki ± SE (95% CI)): 3940 ± 227 nM; Ki ([4]; free enzyme, global non-linear regression (Table 2), read-out: Ki (nM) ± SE): 3940 ± 230 nM; α ± SE (95% CI) [4, 9]: 2.883 ± 0.3970; Vmax ± SD ([4]; inhibitor 4 μM): 11.69 ± 0.201 1 × 10^3 nM/min and 11.69 ± 0.20 1 × 10^3 nM/min; Vmax ± SD ([4]; inhibitor 8 μM): 8.24 ± 0.212 1 × 10^3 nM/min and 8.24 ± 0.21 1 × 10^3 nM/min |
| O=c1oc2cc(OCCCCN3CCCCC3)ccc2cc1-c1cn(-c2ccccc2)nn1 [Compound 1c, 3-(1-Phenyl-1H-1,2,3-triazol-4-yl)-7-(4-(piperidin-1-yl)butoxy)-2H-chromen-2-one] | 1110 ± 10 | ~2 | 2410 ± 29 | – |
| O=c1oc2cc(OCCCCCN3CCCCC3)ccc2cc1-c1cn(-c2ccccc2)nn1 [Compound 1d, 3-(1-Phenyl-1H-1,2,3-triazol-4-yl)-7-((5-(piperidin-1-yl)pentyl)oxy)-2H-chromen-2-one] | 4790 ± 290 | ~1 | 3540 ± 81 | – |
| CC1CCN(CCOc2ccc3cc(-c4cn(-c5ccccc5)nn4)c(=O)oc3c2)CC1 [Compound 1e, 7-(2-(4-Methylpiperidin-1-yl)ethoxy)-3-(1-phenyl-1H-1,2,3-triazol-4-yl)-2H-chromen-2-one] | 1690 ± 75 | ~7 | 11100 | – |
| CN1CCN(CCOc2ccc3cc(-c4cn(-c5ccccc5)nn4)c(=O)oc3c2)CC1 [Compound 1f, 7-(2-(4-Methylpiperazin-1-yl)ethoxy)-3-(1-phenyl-1H-1,2,3-triazol-4-yl)-2H-chromen-2-one] | 3160 ± 76 | 3 | 8140 ± 890 | – |
| O=c1oc2cc(OCCN3CCNCC3)ccc2cc1-c1cn(-c2ccccc2)nn1 [Compound 1g, 3-(1-Phenyl-1H-1,2,3-triazol-4-yl)-7-(2-(piperazin-1-yl)ethoxy)-2H-chromen-2-one] | 1060 ± 74 | ~8 | 9840 ± 130 | – |
| COc1ccccc1Cn1cc(-c2cc3ccc(OCCN4CCCCC4)cc3oc2=O)nn1 [Compound 1i, 3-(1-(2-Methoxybenzyl)-1H-1,2,3-triazol-4-yl)-7-(2-(piperidin-1-yl)ethoxy)-2H-chromen-2-one] | 15.3 ± 0.25 | 184 | 2810 ± 230 | – |
| COc1ccc(Cn2cc(-c3cc4ccc(OCCN5CCCCC5)cc4oc3=O)nn2)cc1 [Compound 1k, 3-(1-(4-Methoxybenzyl)-1H-1,2,3-triazol-4-yl)-7-(2-(piperidin-1-yl)ethoxy)-2H-chromen-2-one] | 4.58 ± 0.62 | 443 | 2080 ± 99 | viability at 24 h, 12.5 µM ([5]; 12.5 μM, 24 h, MTT, read-out: Cell viability (% of control)): 99%; viability at 24 h, 25 µM ([5]; 25.0 μM, 24 h, MTT, read-out: Cell viability (% of control)): 106%; viability at 24 h, 50 µM ([5]; 50.0 μM, 24 h, MTT, read-out: Cell viability (% of control)): 84%; viability at 24 h ([5]; up to 25 μM, read-out: cell viability): ≥ 70%; neurotoxicity [6]: non-neurotoxic; neuroprotection against H2O2-induced oxidative stress ([7]; 12.5 µM): neuroprotective effects; viability at 12.5 µM ([7]; Homo sapiens, SH-SY5Y, read-out: Cell viability (% of control)): 92% |
| O=c1oc2cc(OCCN3CCCCC3)ccc2cc1-c1cn(Cc2ccc(F)cc2)nn1 [Compound 1l, 3-(1-(4-Fluorbenzyl)-1H-1,2,3-triazol-4-yl)-7-(2-(piperidin-1-yl)ethoxy)-2H-chromen-2-one] | 23.4 ± 1.77 | 176 | 4120 ± 110 | – |
| O=c1oc2cc(OCCN3CCCCC3)ccc2cc1-c1cn(Cc2cccc(Cl)c2)nn1 [Compound 1m] | 13.1 ± 0.83 | 149 | 1950 ± 120 | – |
| O=c1oc2cc(OCCN3CCCCC3)ccc2cc1-c1cn(Cc2ccc(Cl)cc2)nn1 [Compound 1n, 3-(1-(4-Chlorobenzyl)-1H-1,2,3-triazol-4-yl)-7-(2-(piperidin-1-yl)ethoxy)-2H-chromen-2-one] | 104 ± 5.4 | – | 2240 ± 60 | – |
| O=c1oc2cc(OCCN3CCCCC3)ccc2cc1-c1cn(Cc2cccc(Br)c2)nn1 [Compound 1o, 3-(1-(3-Bromobenzyl)-1H-1,2,3-triazol-4-yl)-7-(2-(piperidin-1-yl)ethoxy)-2H-chromen-2-one] | 7.92 ± 0.48 | 265 | 2090 ± 54 | – |
| O=c1oc2cc(OCCN3CCCCC3)ccc2cc1-c1cn(Cc2ccc(Br)cc2)nn1 [Compound 1p, 3-(1-(4-Bromobenzyl)-1H-1,2,3-triazol-4-yl)-7-(2-(piperidin-1-yl)ethoxy)-2H-chromen-2-one] | 12.9 ± 0.96 | 88 | 1140 ± 70 | – |
